Measured values published in patent US11040028B2, “Penicinotam derivative, preparation method and use thereof” (OCEAN UNIVERSITY OF CHINA, priority 2017, dated 2021).

Assays:
Type in all cases: cell-based
[1] = test system: human dermal fibroblasts CCC-ESF-1; experiment: Anti-fibrosis activity test: inhibition of proliferation of human dermal fibroblasts CCC-ESF-1 (CCK-8); details: Fibroblast; human dermal fibroblasts CCC-ESF-1, CCK-8, 48 hours
In short: (§1)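 IC50 values derive from CCK-8 absorbance (450 nm, 2 h reagent incubation) measured after a 48 h exposure to test compounds. Before dosing, cells plated at 2×10^4 cells/mL had attached for 24 h under 5% CO2 at 37° C; triplicate wells per concentration.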

[2] = test system: human embryonic lung fibroblast IMR-90; experiment: Anti-fibrosis activity test: inhibition of proliferation of human embryonic lung fibroblast IMR-90 (CCK-8); details: human embryonic lung fibroblast IMR-90, CCK-8, 48 hours
In short: as §1

[3] = test system: mouse macrophages (RAW264.7); experiment: Lipopolysaccharide-induced NO secretion in macrophages (Griess); details: Mus musculus, RAW264.7, 24 h, RAW264.7, LPS 1 μg/ml, a/b isomers given as first/second symbol, read-out: IC50 (μM), inhibition of lipopolysaccharide-induced NO secretion in macrophages
In short: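 Percent inhibition of NO release was measured by Griess absorbance at 548 nm in supernatants. Cells were mouse RAW264.7 macrophages in 10% FBS DMEM, treated with graded compound concentrations and activated by LPS (1 μg/ml) for 24 h.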

[4] = test system: human hepatic stellate cells LX-2; experiment: Anti-fibrosis activity test: inhibition of proliferation of human hepatic stellate cells LX-2 (CCK-8); details: Homo sapiens, 48 h, human hepatic stellate cells LX-2, CCK-8, 48 hours
In short: as §1

[5] = test system: human lung fibroblasts HFL1; experiment: Anti-fibrosis activity test: inhibition of proliferation of human lung fibroblasts HFL1 (CCK-8); details: Homo sapiens, HFL1, 48 h, human lung fibroblasts HFL1, CCK-8, 48 hours
In short: as §1

[6] = test system: human fibrosarcoma cells HT-1080; experiment: Anti-fibrosis activity test: inhibition of proliferation of human fibrosarcoma cells HT-1080 (CCK-8); details: Homo sapiens, HT-1080, 48 h, human fibrosarcoma cells HT-1080, CCK-8, 48 hours
In short: as §1

NF-κB = experiment: Immunological activity test: inhibition of NF-κB activity; details: initial concentration of 30 μM; a/b isomers given as first/second symbol; read-out: IC50 (μM), inhibitory activity against NF-κB
In short: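 Initial screen at 30 μM; parthenolide positive control. IC50s derived from follow-up analysis.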

BHK-21 cells = experiment: Anti-fibrosis activity test: inhibition of BHK-21 cell proliferation (CCK-8); details: Mesocricetus auratus, BHK-21, 48 h, CCK-8, 48 hours after administration
In short: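 Proliferation inhibition was read as CCK-8 absorbance at 450 nm (2-hour development) relative to untreated blank, with IC50 fitted from the curve. Before that, adhered cells (2×10^4 cells/mL, 24 hours) had 48 hours' treatment at several concentrations, in triplicate, at 37° C/5% CO2; pirfenidone was the reference.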

[7] = test system: cardiac fibroblast RAT-iCell-C002; experiment: Anti-fibrosis activity test: inhibition of proliferation of cardiac fibroblast RAT-iCell-C002 (CCK-8); details: Cardiac fibroblast, 48 h, cardiac fibroblast RAT-iCell-C002, CCK-8, 48 hours
In short: as §1

| Structure (SMILES) | IC50 [1] [mM] | IC50 [2] [mM] | IC50 [3] [µM] | IC50 [4] [mM] | IC50 [5] [mM] | IC50 [6] [mM] | IC50 (NF-κB) [µM] | IC50 (BHK-21 cells) [mM] | IC50 [7] [mM] |
| --- | --- | --- | --- | --- | --- | --- | --- | --- | --- |
| O=C1c2c(nc3ccccc3c2OCc2cccc(I)c2)-c2cccn21 [Compound 608b, 9-((3-iodobenzyl)oxy)-10H-pyrrolizino[1,2-b]quinolin-10-one] | 0.05 to 5 | 0.05 to 5 | 1 to 10 | 0.05 to 5 | 0.05 to 5 | 0.05 to 5 | 1 to 10 | 0.05 to 5 | 0.05 to 5 |
| Cc1cccc(Cn2c3c(c(=O)c4ccccc42)C(=O)n2cccc2-3)c1 [Compound 609a, 4-(3-Methylbenzyl)-9H-pyrrolizino[1,2-b]quinoline-9,10(4H)-dione] | 0.05 to 5 | 0.05 to 5 | 0.1 to 1 | 0.05 to 5 | 0.05 to 5 | 0.05 to 5 | 1 to 10 | 0.05 to 5 | 0.05 to 5 |
| Cc1cccc(COc2c3c(nc4ccccc24)-c2cccn2C3=O)c1 [Compound 609b, 9-((3-methylbenzyl)oxy)-10H-pyrrolizino[1,2-b]quinolin-10-one] | 0.05 to 5 | 0.05 to 5 | 1 to 10 | 0.05 to 5 | 0.05 to 5 | 0.05 to 5 | 1 to 10 | 0.05 to 5 | 0.05 to 5 |
| COc1cccc(Cn2c3c(c(=O)c4ccccc42)C(=O)n2cccc2-3)c1 [Compound 610a, 4-(3-Methoxybenzyl)-9H-pyrrolizino[1,2-b]quinoline-9,10(4H)-dione] | 0.05 to 5 | 0.05 to 5 | 1 to 10 | 0.05 to 5 | 0.05 to 5 | 0.05 to 5 | 1 to 10 | 0.05 to 5 | 0.05 to 5 |
| COc1cccc(COc2c3c(nc4ccccc24)-c2cccn2C3=O)c1 [Compound 610b, 9-((3-methoxybenzyl)oxy)-10H-pyrrolizino[1,2-b]quinolin-10-one] | 0.05 to 5 | 0.05 to 5 | 1 to 10 | 0.05 to 5 | 0.05 to 5 | 0.05 to 5 | 1 to 10 | 0.05 to 5 | 0.05 to 5 |
| O=C1c2c(n(Cc3cc(C(F)(F)F)ccc3Cl)c3ccccc3c2=O)-c2cccn21 [Compound 611a, 4-(2-Chloro-5-(trifluoromethyl)benzyl)-9H-pyrrolizino[1,2-b]quinoline-9,10(4H)-dione] | 0.05 to 5 | 0.05 to 5 | 10 to 50 | 0.05 to 5 | 0.05 to 5 | 0.05 to 5 | 0.1 to 1 | 0.05 to 5 | 0.05 to 5 |
| O=C1c2c(nc3ccccc3c2OCc2cc(C(F)(F)F)ccc2Cl)-c2cccn21 [Compound 611b, 9-((2-chloro-5-(trifluoromethyl)benzyl)oxy)-10H-pyrrolizino[1,2-b]quinolin-10-one] | 0.05 to 5 | 0.05 to 5 | 10 to 50 | 0.05 to 5 | 0.05 to 5 | 0.05 to 5 | 1 to 10 | 0.05 to 5 | 0.05 to 5 |
| O=C1c2c(n(Cc3ccccc3Br)c3ccccc3c2=O)-c2cccn21 [Compound 612a, 4-(2-Bromobenzyl)-9H-pyrrolizino[1,2-b]quinoline-9,10(4H)-dione] | 0.05 to 5 | 0.05 to 5 | 10 to 50 | 0.05 to 5 | 0.05 to 5 | 0.05 to 5 | 1 to 10 | 0.05 to 5 | 0.05 to 5 |
| O=C1c2c(nc3ccccc3c2OCc2ccccc2Br)-c2cccn21 [Compound 612b, 9-((2-bromobenzyl)oxy)-10H-pyrrolizino[1,2-b]quinolin-10-one] | 0.05 to 5 | 0.05 to 5 | 10 to 50 | 0.05 to 5 | 0.05 to 5 | 0.05 to 5 | 1 to 10 | 0.05 to 5 | 0.05 to 5 |
| O=C1c2c(n(Cc3ccc(Cl)c(Cl)c3)c3ccccc3c2=O)-c2cccn21 [Compound 613a, 4-(3,4-Dichlorobenzyl)-9H-pyrrolizino[1,2-b]quinoline-9,10(4H)-dione] | 0.05 to 5 | 0.05 to 5 | 10 to 50 | 0.05 to 5 | 0.05 to 5 | 0.05 to 5 | 1 to 10 | < 0.05 | 0.05 to 5 |
| O=C1c2c(nc3ccccc3c2OCc2ccc(Cl)c(Cl)c2)-c2cccn21 [Compound 613b, 9-((3,4-dichlorobenzyl)oxy)-10H-pyrrolizino[1,2-b]quinolin-10-one] | 0.05 to 5 | 0.05 to 5 | 10 to 50 | 0.05 to 5 | 0.05 to 5 | 0.05 to 5 | 1 to 10 | 0.05 to 5 | 0.05 to 5 |
| O=C1c2c(n(Cc3c(Cl)cccc3Cl)c3ccccc3c2=O)-c2cccn21 [Compound 614a, 4-(2,6-Dichlorobenzyl)-9H-pyrrolizino[1,2-b]quinoline-9,10(4H)-dione] | 0.05 to 5 | 0.05 to 5 | 10 to 50 | 0.05 to 5 | 0.05 to 5 | < 0.05 | 1 to 10 | 0.05 to 5 | 0.05 to 5 |
| O=C1c2c(nc3ccccc3c2OCc2c(Cl)cccc2Cl)-c2cccn21 [Compound 614b, 9-((2,6-dichlorobenzyl)oxy)-10H-pyrrolizino[1,2-b]quinolin-10-one] | 0.05 to 5 | 0.05 to 5 | 10 to 50 | 0.05 to 5 | 0.05 to 5 | 0.05 to 5 | 1 to 10 | 0.05 to 5 | 0.05 to 5 |
| O=C1c2c(n(Cc3c(F)cccc3F)c3ccccc3c2=O)-c2cccn21 [Compound 615a, 4-(2,6-Difluorobenzyl)-9H-pyrrolizino[1,2-b]quinoline-9,10(4H)-dione] | 0.05 to 5 | 0.05 to 5 | 10 to 50 | 0.05 to 5 | 0.05 to 5 | 0.05 to 5 | 0.1 to 1 | 0.05 to 5 | 0.05 to 5 |
| O=C1c2c(nc3ccccc3c2OCc2c(F)cccc2F)-c2cccn21 [Compound 615b, 9-((2,6-difluorobenzyl)oxy)-10H-pyrrolizino[1,2-b]quinolin-10-one] | 0.05 to 5 | 0.05 to 5 | 10 to 50 | 0.05 to 5 | 0.05 to 5 | 0.05 to 5 | 10 to 50 | 0.05 to 5 | 0.05 to 5 |
| N#Cc1ccc(F)cc1Cn1c2c(c(=O)c3ccccc31)C(=O)n1cccc1-2 [Compound 616a, 2-((9,10-Dioxo-9H-pyrrolizino[1,2-b]quinolin-4(10H)-yl)methyl)-4-fluorobenzonitrile] | 0.05 to 5 | 0.05 to 5 | 10 to 50 | 0.05 to 5 | 0.05 to 5 | 0.05 to 5 | 0.1 to 1 | 0.05 to 5 | 0.05 to 5 |
| N#Cc1ccc(F)cc1COc1c2c(nc3ccccc13)-c1cccn1C2=O [Compound 616b, 4-fluoro-2-(((10-oxo-10H-pyrrolizino[1,2-b]quinolin-9-yl)oxy)methyl)benzonitrile] | 0.05 to 5 | 0.05 to 5 | 1 to 10 | 0.05 to 5 | 0.05 to 5 | 0.05 to 5 | 10 to 50 | 0.05 to 5 | 0.05 to 5 |
| N#Cc1ccccc1-c1ccc(Cn2c3c(c(=O)c4ccccc42)C(=O)n2cccc2-3)cc1 [Compound 648a, 4′-((9,10-Dioxo-9H-pyrrolizino[1,2-b]quinolin-4(10H)-yl)methyl)-[1,1′-biphenyl]-2-carbonitrile] | 0.05 to 5 | 0.05 to 5 | 10 to 50 | 0.05 to 5 | 0.05 to 5 | 0.05 to 5 | 1 to 10 | 0.05 to 5 | 0.05 to 5 |
| N#Cc1ccccc1-c1ccc(COc2c3c(nc4ccccc24)-c2cccn2C3=O)cc1 [Compound 648b, 4′-(((10-oxo-10H-pyrrolizino[1,2-b]quinolin-9-yl)oxy)methyl)-[1,1′-biphenyl]-2-carbonitrile] | 0.05 to 5 | 0.05 to 5 | 10 to 50 | 0.05 to 5 | 0.05 to 5 | 0.05 to 5 | 1 to 10 | 0.05 to 5 | 0.05 to 5 |
